Results as given in ChEMBL document CHEMBL1201862, “PubChem BioAssay data set” (2004).
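Protocol summary: plate cells (96-well), add compound at 5 concentrations, incubate 48 h, interpolate endpoints linearly. At the GI50, growth is halved.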 Active and inactive are the calls of the source. Rule as the data show it: active = GI50 up to about 1.1 µM and inactive = higher.

What was measured:
Test in all cases: DTP human tumour cell line panel, 48 h
[1] = system: 786-0
[2] = system: ACHN
[3] = system: COLO 205
[4] = system: HCC 2998
[5] = system: HCT-116
[6] = system: KM12
[7] = system: LOX IMVI
[8] = system: NCI-H23
[9] = system: OVCAR-3
[10] = system: SF-295
[11] = system: SK-MEL-2
[12] = system: SN12C
[13] = system: U-251
[14] = system: UACC-62
[15] = system: UO-31
[16] = system: SF-268

Measured: GI50

COc1nc(=O)n(COC(CO)CN2C(=O)c3ccccc3C2=O)cc1Cc1cccc(OCc2ccccc2)c1 (centres undefined)
inactive: [1] > 10 µM | [2] 23.7 µM | [3] 19.8 µM | [4] 20.7 µM | [5] 29.4 µM | [6] 28.2 µM | [7] 20.1 µM | [8] 27.2 µM | [9] 21.9 µM | [10] 22.1 µM | [11] 15.4 µM | [12] 22 µM | [13] 21.9 µM | [14] 14.6 µM | [15] 16.3 µM

Nc1nnc(N)n1N
inactive: [1] > 100 µM | [2] > 100 µM | [3] > 100 µM | [4] > 100 µM | [5] > 100 µM | [6] > 100 µM | [7] > 100 µM | [8] > 100 µM | [16] > 100 µM | [10] > 100 µM | [11] > 100 µM | [13] > 100 µM | [14] > 100 µM | [15] > 100 µM

O=C1CC(O)(c2ccccc2)C(c2ccccc2)=C1c1ccccc1 (centres undefined)
inactive: [1] 45 µM | [2] 38 µM | [3] 17.6 µM | [4] 57.1 µM | [6] 37.9 µM | [7] 38.2 µM | [8] 35.9 µM | [9] 29.4 µM | [16] 37.7 µM | [10] 32.4 µM | [11] 25.5 µM | [12] 38.6 µM | [14] 29.5 µM

C/C=C(\NC(=O)C(CCCCN)NC(=O)C(C)NC(=O)C1CSC(C)C(NC(=O)C2CSCC(NC(=O)C(C)NC(=O)C(N)C(C)CC)C(=O)NC(CCCCN)C(=O)NC(Cc3ccccc3)C(=O)NC(CC(C)C)C(=O)N2)C(=O)N2CCCC2C(=O)NCC(=O)N1)C(=O)NCC(=O)NC1CSCC2NC(=O)C(Cc3ccc(O)cc3)NC(=O)C(CSC=CNC2=O)NC(=O)C(CC(N)=O)NC(=O)C(Cc2ccccc2)NC1=O (centres undefined)
inactive: [1] 35.6 µM | [2] 65 µM | [3] > 100 µM | [4] > 100 µM | [5] > 100 µM | [6] 66.2 µM | [7] > 100 µM | [8] > 100 µM | [9] > 100 µM | [16] 33.4 µM | [10] > 100 µM | [11] > 100 µM | [12] > 100 µM | [13] > 100 µM | [14] 37.6 µM

COc1ccccc1/C=C1\C(=O)N(C(=O)Cc2ccccc2)N=C1C
inactive: [1] > 100 µM | [2] > 100 µM | [3] > 100 µM | [4] > 100 µM | [5] > 100 µM | [6] > 100 µM | [7] > 100 µM | [8] > 100 µM | [9] > 100 µM | [16] > 100 µM | [10] > 100 µM | [11] > 100 µM | [12] > 100 µM | [13] > 100 µM | [15] > 100 µM

O=C(c1ccc(NCN2C(=O)CCC2=O)cc1)c1ccc(NCN2C(=O)CCC2=O)cc1
inactive: [1] > 100 µM | [2] > 100 µM | [3] > 100 µM | [4] > 100 µM | [5] > 100 µM | [6] > 100 µM | [7] > 100 µM | [8] > 100 µM | [9] > 100 µM | [16] > 100 µM | [10] > 100 µM | [11] > 100 µM | [12] > 100 µM | [13] > 100 µM | [14] > 100 µM | [15] > 100 µM

COC(=O)c1ccc(CS(=O)(=O)c2ccccc2)cc1
inactive: [1] > 100 µM | [2] > 100 µM | [3] 59.4 µM | [4] > 100 µM | [5] 60.3 µM | [6] 51.9 µM | [7] 74.3 µM | [8] > 100 µM | [9] > 100 µM | [16] > 100 µM | [10] 61.7 µM | [11] 38.5 µM | [12] > 100 µM | [13] > 100 µM | [14] 99.8 µM | [15] > 100 µM
